IC50 data for one compound are collected here from paper PMC7889647 (Basic & clinical pharmacology & toxicology, 2020).

Structures are written as SMILES.

The experiment concerns the target hERG1a (human ether-a-go-go-related gene potassium channel, Kv11.1) (Homo sapiens, UniProt Q12809). The format is cell-based.

Sequence of hERG1a (human ether-a-go-go-related gene potassium channel, Kv11.1) (Q12809 whole entry): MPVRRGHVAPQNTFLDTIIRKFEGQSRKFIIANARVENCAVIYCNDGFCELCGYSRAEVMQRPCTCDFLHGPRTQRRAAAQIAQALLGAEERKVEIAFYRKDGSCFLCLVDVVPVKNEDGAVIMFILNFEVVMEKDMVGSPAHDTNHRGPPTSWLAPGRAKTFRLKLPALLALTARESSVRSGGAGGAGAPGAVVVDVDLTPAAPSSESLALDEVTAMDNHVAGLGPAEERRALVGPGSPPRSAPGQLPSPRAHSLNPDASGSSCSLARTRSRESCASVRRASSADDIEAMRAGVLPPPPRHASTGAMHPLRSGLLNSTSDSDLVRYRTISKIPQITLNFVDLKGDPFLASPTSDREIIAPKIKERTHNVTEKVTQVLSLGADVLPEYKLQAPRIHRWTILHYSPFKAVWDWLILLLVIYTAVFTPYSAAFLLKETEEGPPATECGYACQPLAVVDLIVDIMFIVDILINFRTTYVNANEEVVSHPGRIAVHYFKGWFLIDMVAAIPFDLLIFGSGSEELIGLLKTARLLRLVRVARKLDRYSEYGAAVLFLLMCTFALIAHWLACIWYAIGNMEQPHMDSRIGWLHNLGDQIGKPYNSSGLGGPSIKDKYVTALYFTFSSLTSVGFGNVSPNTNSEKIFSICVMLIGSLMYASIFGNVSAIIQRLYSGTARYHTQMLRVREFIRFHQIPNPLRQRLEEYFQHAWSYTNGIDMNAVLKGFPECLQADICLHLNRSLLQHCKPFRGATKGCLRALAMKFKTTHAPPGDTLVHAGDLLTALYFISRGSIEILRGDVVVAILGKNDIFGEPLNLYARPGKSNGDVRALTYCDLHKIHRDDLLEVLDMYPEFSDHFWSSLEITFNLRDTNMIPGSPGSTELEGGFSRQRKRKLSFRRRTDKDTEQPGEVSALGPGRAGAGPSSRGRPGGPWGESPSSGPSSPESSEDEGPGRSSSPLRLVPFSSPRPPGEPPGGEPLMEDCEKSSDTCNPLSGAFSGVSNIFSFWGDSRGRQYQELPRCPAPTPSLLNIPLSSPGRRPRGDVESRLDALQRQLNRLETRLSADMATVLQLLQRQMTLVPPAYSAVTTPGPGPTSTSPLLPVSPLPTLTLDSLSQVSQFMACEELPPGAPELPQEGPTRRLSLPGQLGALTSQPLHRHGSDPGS

In turn, `N#Cc1ccc(C(c2ccc(C#N)cc2)n2cncn2)cc1` [letrozole] registered an IC50 of 373 nM.

A word on the IC50: it is the concentration that inhibits the measured activity by half. A low value points to inhibition by little substance.
